What was measured:
Assay type in all cases: cell-based
[1] = molecular target: BaF3 cell lines stably transfected with kinase EGFR Del (Homo sapiens, UniProt P00533, cells depend on it, form not given); assay: Growth inhibition of BaF3 cell line stably transfected with kinase EGFR Del (MTS); conditions: 48 h, read-out: growth inhibitory activity IC50, Del
Experimental: (§1) Biological Activity Assay: Growth Inhibitory Activity of Compounds on Cell Lines Stably Transfected with Kinase
(§2) The activity of compounds against various mutants of kinase EGFR was evaluated by their effect of inhibiting growth of BaF3 cell lines stably transfected with kinase. The specific test method was given as follows:
(§3) 1) Culture medium: DMEM (Dulbecco's modified eagle medium) or RPMI 1640 (containing 10% fetal bovine serum, 100 μg/mL ampicillin, 100 μg/mL streptomycin).
(§4) 2) Reagent: MTS reaction solution (containing 2 mg/mL of MTS [3-(4,5-di methylthiazol-2-yl)-5-(3-carboxymethoxyphenyl)-2-(4-sulfophenyl)-2H-tetrazolium, inner Salt]; 100 μg/mL of PES (phenazine […])).
(§5) 3) Compound test: cells were incubated into a 96-well culture plate, the volume of cytosol was 90 μL, and then 10 μL of the compound at each gradient concentration was added. That is, the highest concentration was 10 μM, which was diluted stepwise by ⅓, and 8 concentration points were set in total; 0.1% DMSO (dimethyl sulfoxide) was contained in the system. The cell plate with uniformly mixed compound was cultured in a cell culture incubator (37° C.; 5% […]) for 48 h, then 20 μL of MTS reaction solution was added, uniformly mixed and incubated in the cell culture incubator (37° C.; 5% CO2) for 1-4 h; OD values at 490 nm were measured by a microplate reader (VARIOSKAN FLASH, Thermo). Two parallels were set in each group of experiments, with 0.1% (a final concentration) DMSO as a negative control, and a culture medium without cells and compounds as a blank control. The cell growth inhibition rate was calculated by the following formula: Cell growth inhibition rate %=1−(ODexperimental group−ODblank group)/(ODnegative group−ODblank group)×100%.
(§6) 4) IC50 calculation: The semi-inhibitory concentration of the compounds acting on cells was calculated using GradPad Prism 5 software according to the measured cell growth inhibition rate.

[2] = molecular target: BaF3 cell lines stably transfected with kinase EGFR L858R (Homo sapiens, UniProt P00533, L858R, cells depend on it); assay: Growth inhibition of BaF3 cell line stably transfected with kinase EGFR L858R (MTS); conditions: 48 h, read-out: growth inhibitory activity IC50, L858R
BaF3 cell lines stably transfected with kinase EGFR L858R, sequence (P00533 whole entry L858R): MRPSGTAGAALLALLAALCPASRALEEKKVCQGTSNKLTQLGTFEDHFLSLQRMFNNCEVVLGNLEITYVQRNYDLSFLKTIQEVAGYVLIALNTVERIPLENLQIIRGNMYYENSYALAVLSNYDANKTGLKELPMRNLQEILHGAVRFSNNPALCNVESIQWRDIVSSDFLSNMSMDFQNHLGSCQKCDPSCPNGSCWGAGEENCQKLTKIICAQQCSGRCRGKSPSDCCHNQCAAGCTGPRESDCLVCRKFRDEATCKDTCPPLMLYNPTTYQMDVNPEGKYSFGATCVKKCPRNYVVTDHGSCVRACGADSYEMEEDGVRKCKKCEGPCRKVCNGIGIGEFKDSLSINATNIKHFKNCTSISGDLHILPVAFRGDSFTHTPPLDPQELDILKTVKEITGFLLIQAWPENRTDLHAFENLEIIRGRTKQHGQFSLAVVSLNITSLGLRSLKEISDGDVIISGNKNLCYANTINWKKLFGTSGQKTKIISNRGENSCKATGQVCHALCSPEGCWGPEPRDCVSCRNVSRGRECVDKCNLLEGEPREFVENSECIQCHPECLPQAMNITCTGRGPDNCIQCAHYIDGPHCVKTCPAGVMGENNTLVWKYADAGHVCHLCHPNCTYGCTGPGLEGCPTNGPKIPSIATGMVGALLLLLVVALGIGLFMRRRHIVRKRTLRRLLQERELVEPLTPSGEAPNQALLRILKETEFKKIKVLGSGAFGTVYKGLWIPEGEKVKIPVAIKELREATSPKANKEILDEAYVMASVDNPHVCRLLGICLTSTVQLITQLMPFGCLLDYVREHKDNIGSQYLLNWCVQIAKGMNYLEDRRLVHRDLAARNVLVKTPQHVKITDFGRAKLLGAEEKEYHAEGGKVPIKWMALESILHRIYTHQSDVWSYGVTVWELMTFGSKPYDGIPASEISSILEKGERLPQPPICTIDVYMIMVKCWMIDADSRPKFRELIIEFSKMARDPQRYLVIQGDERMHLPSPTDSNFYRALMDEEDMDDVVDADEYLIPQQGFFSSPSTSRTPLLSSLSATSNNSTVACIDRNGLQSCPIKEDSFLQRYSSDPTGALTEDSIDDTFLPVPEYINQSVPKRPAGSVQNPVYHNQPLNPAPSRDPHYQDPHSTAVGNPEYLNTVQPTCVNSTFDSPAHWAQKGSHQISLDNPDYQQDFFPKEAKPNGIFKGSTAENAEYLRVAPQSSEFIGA
Experimental: as §1, §2, §3, §4, §5, §6

[3] = molecular target: BaF3 cell lines stably transfected with kinase EGFR Del/T790M/C797S (Homo sapiens, UniProt P00533, T790M/C797S, cells depend on it, form not given); assay: Growth inhibition of BaF3 cell line stably transfected with kinase EGFR Del/T790M/C797S (MTS); conditions: 48 h, read-out: growth inhibitory activity IC50, Del/T790M/C797S
Experimental: as §1, §2, §3, §4, §5, §6

[4] = molecular target: BaF3 cell lines stably transfected with kinase EGFR Del/T790M (Homo sapiens, UniProt P00533, T790M, cells depend on it, form not given); assay: Growth inhibition of BaF3 cell line stably transfected with kinase EGFR Del/T790M (MTS); conditions: 48 h, read-out: growth inhibitory activity IC50, Del/T790M
BaF3 cell lines stably transfected with kinase EGFR Del/T790M, sequence (P00533 with tags, fused parts or gaps DEL746-750/T790M, form open): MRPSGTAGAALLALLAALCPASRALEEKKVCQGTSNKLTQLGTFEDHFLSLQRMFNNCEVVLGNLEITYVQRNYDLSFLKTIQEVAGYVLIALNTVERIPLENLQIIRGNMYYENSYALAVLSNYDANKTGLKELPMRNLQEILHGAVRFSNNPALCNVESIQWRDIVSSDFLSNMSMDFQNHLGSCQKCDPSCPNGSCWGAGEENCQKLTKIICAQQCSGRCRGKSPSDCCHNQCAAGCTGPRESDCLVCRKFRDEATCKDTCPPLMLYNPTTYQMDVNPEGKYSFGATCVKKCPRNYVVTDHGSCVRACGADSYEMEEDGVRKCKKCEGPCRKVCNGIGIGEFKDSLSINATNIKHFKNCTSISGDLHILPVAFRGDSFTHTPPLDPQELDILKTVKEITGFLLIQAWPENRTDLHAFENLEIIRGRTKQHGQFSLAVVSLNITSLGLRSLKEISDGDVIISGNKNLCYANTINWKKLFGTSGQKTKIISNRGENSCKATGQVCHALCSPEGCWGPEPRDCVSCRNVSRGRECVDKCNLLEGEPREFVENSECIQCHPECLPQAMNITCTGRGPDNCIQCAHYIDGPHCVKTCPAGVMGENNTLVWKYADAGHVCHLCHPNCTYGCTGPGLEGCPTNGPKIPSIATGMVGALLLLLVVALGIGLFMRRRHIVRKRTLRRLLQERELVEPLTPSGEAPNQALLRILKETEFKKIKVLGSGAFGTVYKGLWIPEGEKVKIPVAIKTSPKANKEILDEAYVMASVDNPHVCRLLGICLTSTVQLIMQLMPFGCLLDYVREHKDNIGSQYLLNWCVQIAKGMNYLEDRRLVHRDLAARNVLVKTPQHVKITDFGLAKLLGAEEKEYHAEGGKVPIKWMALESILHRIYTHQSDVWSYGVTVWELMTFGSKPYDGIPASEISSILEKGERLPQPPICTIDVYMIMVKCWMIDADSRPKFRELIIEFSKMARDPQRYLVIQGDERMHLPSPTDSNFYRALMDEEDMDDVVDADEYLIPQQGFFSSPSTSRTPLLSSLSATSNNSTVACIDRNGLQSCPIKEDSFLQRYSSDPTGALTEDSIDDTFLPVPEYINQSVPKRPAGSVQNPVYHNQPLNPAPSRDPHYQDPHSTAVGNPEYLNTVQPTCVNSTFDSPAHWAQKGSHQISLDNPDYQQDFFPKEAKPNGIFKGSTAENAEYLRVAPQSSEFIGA
Experimental: as §1, §2, §3, §4, §5, §6

[5] = molecular target: BaF3 cell lines stably transfected with kinase EGFR L858R/T790M (Homo sapiens, UniProt P00533, T790M/L858R, cells depend on it); assay: Growth inhibition of BaF3 cell line stably transfected with kinase EGFR L858R/T790M (MTS); conditions: 48 h, read-out: growth inhibitory activity IC50, L858R/T790M
BaF3 cell lines stably transfected with kinase EGFR L858R/T790M, sequence (P00533 whole entry T790M/L858R): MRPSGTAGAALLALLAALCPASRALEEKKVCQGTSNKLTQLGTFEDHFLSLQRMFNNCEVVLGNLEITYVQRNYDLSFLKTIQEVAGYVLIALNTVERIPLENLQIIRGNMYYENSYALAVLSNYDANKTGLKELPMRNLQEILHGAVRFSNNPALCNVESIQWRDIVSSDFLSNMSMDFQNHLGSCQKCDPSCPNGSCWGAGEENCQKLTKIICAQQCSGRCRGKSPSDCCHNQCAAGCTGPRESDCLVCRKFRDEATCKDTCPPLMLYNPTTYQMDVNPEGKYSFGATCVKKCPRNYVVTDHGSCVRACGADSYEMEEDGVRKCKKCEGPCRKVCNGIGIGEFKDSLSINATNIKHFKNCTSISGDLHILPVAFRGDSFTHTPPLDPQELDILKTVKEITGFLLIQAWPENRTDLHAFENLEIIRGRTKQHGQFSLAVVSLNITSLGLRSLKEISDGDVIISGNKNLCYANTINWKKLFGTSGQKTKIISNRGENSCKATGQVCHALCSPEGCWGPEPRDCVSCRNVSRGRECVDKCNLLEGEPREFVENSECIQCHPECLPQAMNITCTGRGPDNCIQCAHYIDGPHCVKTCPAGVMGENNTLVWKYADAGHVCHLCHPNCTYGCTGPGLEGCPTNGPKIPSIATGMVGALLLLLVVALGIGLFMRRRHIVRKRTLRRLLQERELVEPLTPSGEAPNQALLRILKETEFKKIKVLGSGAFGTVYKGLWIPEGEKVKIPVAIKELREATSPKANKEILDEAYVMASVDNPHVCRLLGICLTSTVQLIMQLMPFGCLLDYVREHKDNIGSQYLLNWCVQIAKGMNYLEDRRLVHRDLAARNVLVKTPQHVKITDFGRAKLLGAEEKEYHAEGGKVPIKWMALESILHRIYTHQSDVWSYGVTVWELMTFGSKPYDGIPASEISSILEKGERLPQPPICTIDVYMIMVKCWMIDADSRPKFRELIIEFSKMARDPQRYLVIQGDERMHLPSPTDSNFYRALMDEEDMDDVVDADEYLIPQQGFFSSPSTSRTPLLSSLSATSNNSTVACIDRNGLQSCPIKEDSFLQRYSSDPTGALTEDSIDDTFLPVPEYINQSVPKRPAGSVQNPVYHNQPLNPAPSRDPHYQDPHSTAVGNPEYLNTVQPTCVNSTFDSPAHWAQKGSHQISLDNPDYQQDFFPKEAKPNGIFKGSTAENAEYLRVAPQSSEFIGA
Experimental: as §1, §2, §3, §4, §5, §6

[6] = molecular target: BaF3 cell lines stably transfected with kinase EGFR L858R/T790M/C797S (Homo sapiens, UniProt P00533, T790M/C797S/L858R, cells depend on it); assay: Growth inhibition of BaF3 cell line stably transfected with kinase EGFR L858R/T790M/C797S (MTS); conditions: 48 h, read-out: growth inhibitory activity IC50, L858R/T790M/C797S
Experimental: as §1, §2, §3, §4, §5, §6

BaF3 cell lines stably transfected with kinase EGFR Del, sequence (P00533 with tags, fused parts or gaps DEL746-750): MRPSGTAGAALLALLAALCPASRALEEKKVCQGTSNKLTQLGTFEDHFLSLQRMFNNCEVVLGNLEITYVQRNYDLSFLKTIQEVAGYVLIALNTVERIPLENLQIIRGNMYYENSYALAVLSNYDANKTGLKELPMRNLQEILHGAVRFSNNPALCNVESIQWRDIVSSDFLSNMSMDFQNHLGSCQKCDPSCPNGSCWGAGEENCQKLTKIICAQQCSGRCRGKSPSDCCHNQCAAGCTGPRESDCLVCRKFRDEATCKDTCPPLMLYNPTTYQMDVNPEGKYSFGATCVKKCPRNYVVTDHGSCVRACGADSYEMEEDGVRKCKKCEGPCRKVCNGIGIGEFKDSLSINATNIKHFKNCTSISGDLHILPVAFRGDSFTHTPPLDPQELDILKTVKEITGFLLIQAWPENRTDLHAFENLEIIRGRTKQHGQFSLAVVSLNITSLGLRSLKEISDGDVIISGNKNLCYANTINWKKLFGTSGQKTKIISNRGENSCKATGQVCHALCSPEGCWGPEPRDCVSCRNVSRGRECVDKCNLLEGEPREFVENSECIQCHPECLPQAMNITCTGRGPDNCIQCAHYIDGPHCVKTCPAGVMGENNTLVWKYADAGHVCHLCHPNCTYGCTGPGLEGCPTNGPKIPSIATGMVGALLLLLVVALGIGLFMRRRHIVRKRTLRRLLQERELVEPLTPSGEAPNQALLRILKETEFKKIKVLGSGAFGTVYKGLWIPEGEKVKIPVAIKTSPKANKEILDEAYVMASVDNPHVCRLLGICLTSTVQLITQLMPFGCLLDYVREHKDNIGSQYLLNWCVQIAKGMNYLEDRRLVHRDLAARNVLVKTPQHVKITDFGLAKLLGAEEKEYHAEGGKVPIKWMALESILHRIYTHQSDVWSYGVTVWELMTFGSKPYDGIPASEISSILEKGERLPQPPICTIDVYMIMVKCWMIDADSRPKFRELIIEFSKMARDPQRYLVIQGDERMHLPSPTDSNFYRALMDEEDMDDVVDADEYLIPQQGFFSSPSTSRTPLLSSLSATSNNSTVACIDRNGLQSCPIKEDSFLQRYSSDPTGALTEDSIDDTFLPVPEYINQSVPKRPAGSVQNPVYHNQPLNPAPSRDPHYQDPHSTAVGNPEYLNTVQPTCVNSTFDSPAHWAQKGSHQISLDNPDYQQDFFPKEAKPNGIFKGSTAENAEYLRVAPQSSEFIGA

Row | GI50 [1] | GI50 [2] | GI50 [3] | GI50 [4] | GI50 [5] | GI50 [6] | SMILES
1 | 50 to 500 nM | 50 to 500 nM | 50 to 500 nM | 50 to 500 nM | 50 to 500 nM | 50 to 500 nM | C=Cc1cnc(Nc2cnn(C)c2)nc1Nc1ccc2nccnc2c1N(C)S(C)(=O)=O [II-65]
2 | 50 to 500 nM | 50 to 500 nM | 500 to 2500 nM | 50 to 500 nM | 50 to 500 nM | 50 to 500 nM | C=Cc1cnc(Nc2ccc(N3CCC(N4CCN(C)CC4)CC3)c(CC)c2)nc1Nc1ccc2nccnc2c1S(C)(=O)=O [III-14]
3 | 500 to 2500 nM | 500 to 2500 nM | 500 to 2500 nM | 50 to 500 nM | 500 to 2500 nM | 500 to 2500 nM | C=Cc1cnc(Nc2cc(F)c(N3CCC(N4CCN(C)CC4)CC3)c(F)c2)nc1Nc1ccc2nccnc2c1S(C)(=O)=O [III-16]
4 | 500 to 2500 nM | 500 to 2500 nM | 500 to 2500 nM | 500 to 2500 nM | 500 to 2500 nM | 50 to 500 nM | C=Cc1cnc(Nc2ccc(N3CCC(N4CCN(C)CC4)CC3)cc2OC)nc1Nc1ccc2nccnc2c1NS(=O)(=O)C(C)C [II-42]
5 | 500 to 2500 nM | 500 to 2500 nM | 500 to 2500 nM | 500 to 2500 nM | 50 to 500 nM | 500 to 2500 nM | C=Cc1cnc(Nc2cc(CC)c(N3CCN(C)CC3)cc2OC)nc1Nc1ccc2nccnc2c1S(C)(=O)=O [III-4]
6 | ≤ 50 nM | ≤ 50 nM | ≤ 50 nM | ≤ 50 nM | 50 to 500 nM | ≤ 50 nM | C=Cc1cnc(Nc2cc(CC)c(N3CCN(C)CC3)cc2OC)nc1Nc1ccc2nccnc2c1NS(C)(=O)=O [II-41]
7 | ≤ 50 nM | ≤ 50 nM | ≤ 50 nM | ≤ 50 nM | ≤ 50 nM | ≤ 50 nM | C=Cc1cnc(Nc2cc(CC)c(N3CCC(N4CCN(C)CC4)CC3)cc2OC)nc1Nc1ccc2nccnc2c1P(C)(C)=O [Compound I-1]
8 | 50 to 500 nM | 50 to 500 nM | 50 to 500 nM | 50 to 500 nM | 50 to 500 nM | 50 to 500 nM | C=Cc1cnc(Nc2cc(C3CC3)c(N3CCC(N4CCN(C)CC4)CC3)cc2OC)nc1Nc1ccc2nccnc2c1S(=O)(=O)C(C)C [III-21]
9 | 50 to 500 nM | 50 to 500 nM | 50 to 500 nM | 50 to 500 nM | 50 to 500 nM | 50 to 500 nM | C=Cc1cnc(Nc2cc(CC)c(N3CCC(N4CCN(C)CC4)CC3)cc2OC)nc1Nc1ccc2nccnc2c1S(=O)(=O)NC [IV-3]
10 | ≤ 50 nM | ≤ 50 nM | ≤ 50 nM | ≤ 50 nM | ≤ 50 nM | ≤ 50 nM | C=Cc1cnc(Nc2cc(CC)c(N3CCC(N(C)C)CC3)cc2OC)nc1Nc1ccc2nccnc2c1NS(C)(=O)=O [II-39]
11 | 500 to 2500 nM | 500 to 2500 nM | 500 to 2500 nM | 500 to 2500 nM | 50 to 500 nM | 500 to 2500 nM | C=Cc1cnc(Nc2cc(CC)c(N3CCC(N(C)C)C3)cc2OC)nc1Nc1ccc2nccnc2c1S(C)(=O)=O (stereo not drawn) [III-3]
12 | 50 to 500 nM | 50 to 500 nM | 50 to 500 nM | 50 to 500 nM | 50 to 500 nM | 50 to 500 nM | C=Cc1cnc(Nc2cc(C3CC3)c(N3CCC(N4CCN(C)CC4)CC3)cc2OC)nc1Nc1ccc2nccnc2c1S(=O)(=O)NC [IV-7]
13 | ≤ 50 nM | ≤ 50 nM | ≤ 50 nM | ≤ 50 nM | ≤ 50 nM | ≤ 50 nM | C=Cc1cnc(Nc2cc(CC)c(N3CCC(N4CCN(C)CC4)CC3)cc2OC)nc1Nc1ccc2nccnc2c1N(C)S(C)(=O)=O [II-1]
14 | 50 to 500 nM | 50 to 500 nM | 50 to 500 nM | ≤ 50 nM | ≤ 50 nM | 50 to 500 nM | C=Cc1cnc(Nc2cc(CC)c(N3CCC(N4CCN(C)CC4)CC3)nc2OC)nc1Nc1ccc2nccnc2c1N(C)S(C)(=O)=O [II-5]
15 | 50 to 500 nM | 50 to 500 nM | 50 to 500 nM | 50 to 500 nM | 50 to 500 nM | 50 to 500 nM | C=Cc1cnc(Nc2cc(CC)c(N3CCC(N4CCN(C)CC4)CC3)cc2OC)nc1Nc1ccc2nccnc2c1S(=O)(=O)C(C)C [III-6]

Continued, compound first:

Row | SMILES | GI50 [1] | GI50 [2] | GI50 [3] | GI50 [4] | GI50 [5] | GI50 [6]
16 | C=Cc1cnc(Nc2cc(CC)c(N3CCC(N4CCN(C)CC4)CC3)cc2OC(F)(F)F)nc1Nc1ccc2nccnc2c1S(C)(=O)=O [III-5] | 500 to 2500 nM | 500 to 2500 nM | 500 to 2500 nM | 500 to 2500 nM | 50 to 500 nM | 500 to 2500 nM
17 | CCc1cc(Nc2ncc(C3=CCCC3)c(Nc3ccc4nccnc4c3P(C)(C)=O)n2)c(OC)cc1N1CCC(N2CCN(C)CC2)CC1 [Compound I-13] | ≤ 50 nM | ≤ 50 nM | 50 to 500 nM | 50 to 500 nM | 50 to 500 nM | 50 to 500 nM
18 | C=Cc1cnc(Nc2cc(Cc3ccccc3)c(N3CCC(N4CCN(C)CC4)CC3)cc2OC)nc1Nc1ccc2nccnc2c1N(C)S(C)(=O)=O [II-19] | 500 to 2500 nM | 500 to 2500 nM | ≤ 50 nM | 50 to 500 nM | 500 to 2500 nM | 50 to 500 nM
19 | C=Cc1cnc(Nc2cn(CC)nc2C)nc1Nc1ccc2nccnc2c1N(C)S(C)(=O)=O [II-68] | 50 to 500 nM | 50 to 500 nM | 50 to 500 nM | 500 to 2500 nM | 500 to 2500 nM | 50 to 500 nM
20 | C=Cc1cnc(Nc2cc(CC)c(N3CCN(C)CC3)cc2OC)nc1Nc1ccc2nccnc2c1P(C)(C)=O [Compound I-4] | ≤ 50 nM | ≤ 50 nM | ≤ 50 nM | ≤ 50 nM | ≤ 50 nM | ≤ 50 nM
21 | C=Cc1cnc(Nc2cc(C(C)C)c(N3CCC(N4CCN(C)CC4)CC3)cc2OC)nc1Nc1ccc2nccnc2c1NS(C)(=O)=O [II-35] | 50 to 500 nM | 50 to 500 nM | 500 to 2500 nM | 50 to 500 nM | 500 to 2500 nM | 50 to 500 nM
22 | C=Cc1cnc(Nc2cc(C(C)C)c(N3CCC(N4CCN(C)CC4)CC3)cc2OC)nc1Nc1ccc2nccnc2c1P(C)(C)=O [Compound I-16] | 50 to 500 nM | 50 to 500 nM | 50 to 500 nM | 50 to 500 nM | 50 to 500 nM | 50 to 500 nM
23 | C=Cc1cnc(Nc2cc(CC3CC3)c(N3CCC(N4CCN(C)CC4)CC3)cc2OC)nc1Nc1ccc2nccnc2c1N(C)S(C)(=O)=O [II-7] | ≤ 50 nM | ≤ 50 nM | ≤ 50 nM | ≤ 50 nM | ≤ 50 nM | ≤ 50 nM
24 | C=Cc1cnc(Nc2cc(C)c(N3CCC(N4CCN(C)CC4)CC3)cc2OC)nc1Nc1ccc2nccnc2c1S(=O)(=O)C(C)C [III-19] | 50 to 500 nM | 50 to 500 nM | 500 to 2500 nM | 50 to 500 nM | 50 to 500 nM | 50 to 500 nM
25 | C=Cc1cnc(Nc2cc(C)n(C)n2)nc1Nc1ccc2nccnc2c1N(C)S(C)(=O)=O [II-62] | 500 to 2500 nM | 500 to 2500 nM | 50 to 500 nM | 500 to 2500 nM | 500 to 2500 nM | 50 to 500 nM
26 | CCc1cc(Nc2ncc(/C=C/C3CC3)c(Nc3ccc4nccnc4c3P(C)(C)=O)n2)c(OC)cc1N1CCC(N2CCN(C)CC2)CC1 [Compound I-11] | ≤ 50 nM | ≤ 50 nM | 50 to 500 nM | 50 to 500 nM | 50 to 500 nM | 50 to 500 nM
27 | C=Cc1cnc(Nc2cc(CC3CC3)c(N3CCC(N4CCN(C)CC4)CC3)cc2OC)nc1Nc1ccc2nccnc2c1NS(C)(=O)=O [II-37] | ≤ 50 nM | ≤ 50 nM | 50 to 500 nM | ≤ 50 nM | 50 to 500 nM | ≤ 50 nM

Source: patent US12679822B2, “Alkenyl pyrimidine compound, preparation method therefor, and application thereof” (Hongyun Biotech Co., Ltd., priority 2020, dated 2026)
